Data from patent US8969294B2 (Istituto di Recerche di Biologia Molecolare P. Angeletti …, priority 2008, dated 2015).
Values belong to the compound of their own block, whether it stands above or below them. Square brackets hold non-standard residues; d marks the D form. Ends that are not written are not given here. Aib = CC(C)(N)C(=O)O

Assays:
GLP-1 receptor = GLP-1 receptor (Homo sapiens, UniProt P43220); assay: Functional assay, cAMP synthesis: luciferase reporter in HEK293 cells co-transfected with GLP-1 receptor
GLP-1 receptor, sequence (P43220 24-463, species assumed): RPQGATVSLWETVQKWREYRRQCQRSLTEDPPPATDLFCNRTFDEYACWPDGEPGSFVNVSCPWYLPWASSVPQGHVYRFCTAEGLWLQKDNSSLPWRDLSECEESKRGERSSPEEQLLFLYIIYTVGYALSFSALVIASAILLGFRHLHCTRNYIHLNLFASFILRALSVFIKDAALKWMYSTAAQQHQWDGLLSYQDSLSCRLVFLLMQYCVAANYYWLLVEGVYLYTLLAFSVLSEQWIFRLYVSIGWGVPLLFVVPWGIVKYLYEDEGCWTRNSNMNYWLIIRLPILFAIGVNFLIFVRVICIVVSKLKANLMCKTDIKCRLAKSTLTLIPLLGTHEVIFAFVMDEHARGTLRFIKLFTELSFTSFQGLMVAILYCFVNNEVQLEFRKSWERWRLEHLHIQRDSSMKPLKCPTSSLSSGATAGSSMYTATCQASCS

glucagon receptor = glucagon receptor (Homo sapiens, UniProt P47871); assay: Functional assay, cAMP synthesis: luciferase reporter in HEK293 cells co-transfected with glucagon receptor
glucagon receptor, sequence (P47871 26-477): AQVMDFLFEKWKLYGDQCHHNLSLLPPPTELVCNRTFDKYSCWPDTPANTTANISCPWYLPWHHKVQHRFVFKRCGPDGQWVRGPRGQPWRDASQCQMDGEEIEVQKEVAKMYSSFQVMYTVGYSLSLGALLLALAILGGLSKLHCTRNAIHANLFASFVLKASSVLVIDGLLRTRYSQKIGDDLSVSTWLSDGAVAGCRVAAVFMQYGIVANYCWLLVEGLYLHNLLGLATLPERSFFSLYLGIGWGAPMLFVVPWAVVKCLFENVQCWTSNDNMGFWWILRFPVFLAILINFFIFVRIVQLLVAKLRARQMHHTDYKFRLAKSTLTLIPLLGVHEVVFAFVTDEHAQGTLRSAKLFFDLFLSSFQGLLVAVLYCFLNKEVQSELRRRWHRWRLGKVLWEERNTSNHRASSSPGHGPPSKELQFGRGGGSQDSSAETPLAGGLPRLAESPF

[1] = Circular dichroism, percent helicity
[2] = Body weight of DIO mice after i.p. injection (Example 26); type: in vivo; conditions: 15 or 70 nmol/kg i.p., 7 days
Procedure: DIO mice were injected intraperitoneally with vehicle only or 15 or 70 nmol/kg of one of the following:
Body weight was measured before injection and at 1, 3, 5, and 7 days post-injection.

[3] = Diet-induced obese C57B6 mice, s.c. Peptide X-PEG / Y-PEG (Examples 45-49); type: in vivo; conditions: for blood glucose profile (AUC), i.p. glucose challenge: Day 3; for Blood glucose levels, mean decrease: from Day 3; for decrease in body weight: one month
Procedure: C57BI/6 mice were obtained from Jackson Laboratories and fed a diabetogenic diet from Research Diets, a high sucrose diet with 58% kcal from fat. Mice were single or group-housed on a 12:12-h light-dark cycle at 22° C. with free access to food and water. All studies were approved by and performed according to the guidelines of the Institutional Animal Care and Use Committee of the University of Cincinnati.
Whole body composition (fat and lean mass) was measured using NMR technology (EchoMRI, Houston, Tex.).
Energy intake and expenditure, as well as home-cage activity, were assessed by using a combined indirect calorimetry system (TSE Systems, Bad Homburg, Germany). Oxygen consumption and CO2 production were measured every 45 min for a total of 120 h (including 12 h of adaptation) to determine the respiratory quotient and energy expenditure. Food and water intake and meal patterns were determined continuously for 120 h at the same time as the indirect calorimetry assessments by integration of scales into the sealed cage environment. Meals were defined as food intake events with a minimum duration of 60 s, and a break of 300 s between food intake events. Home-cage locomotor activity was determined using a multidimensional infrared light beam system with beams scanning the bottom and top levels of the cage, and activity being expressed as beam breaks. Stationary motor activity (fidgeting) was defined as consecutive breaks of one single light beam at cage-bottom level, ambulatory movement as breaks of any two different light beams at cage-bottom level, and rearing as simultaneous breaks of light beams on both cage-bottom and the top level.
Blood was collected after a 6-h fast from tail veins using EDTA-coated Microvette tubes (Sarstedt, Nuremberg, Germany) and immediately chilled on ice. After 15 min of centrifugation at 3,000 g and 4° C., plasma was stored at −80° C. Plasma insulin was quantified by a radioimmunoassay from Linco (Sensitive Rat Insulin RIA; Linco Research, St. Charles, Mo.). Plasma TGs and cholesterol levels were measured by enzymatic assay kits (Thermo Electron, Waltham, Mass.). Samples were analyzed individually with the exception that pooled samples (0.25 ml) from 5 animals/group were subjected to fast-performance liquid chromatography (FPLC) gel filtration on two Superose 6 columns connected in series for lipoprotein separation. All assays were performed according to the manufacturer's instructions.
For the determination of glucose tolerance, mice were subjected to 6 h of fasting and injected intraperitoneally (i.p.) with 2 g glucose/kg body wt (50% D-glucose (Sigma) in 0.9% saline) for the glucose tolerance test (GTT). Tail blood glucose levels (mg/dl) were measured by using a hand-held glucometer (TheraSense Freestyle) before (0 min) and at 15, 30, 60, 90, and 120 min after injection.
The 40-kd pegylated peptides Peptides X-PEG and Y-PEG were used as single weekly subcutaneous (s.c) injections in diet-induced obese (D10) C57B6 mice.
Long-term effects of these lower doses on food intake (p=0.95; FIG. 29C) were less impressive than short-term effects with a higher dose (FIG. 27C).

[4] = Diet-induced obese rats, once-a-week injection, 3-week treatment; type: in vivo; conditions: 70 nmol/kg/week, 3 weeks
Procedure: To determine if the principal phenomenon generalizes across species, both compounds were administered to diet-induced obese rats (mean weight 777.4+/−2.1 g, dose 70 nmol/kg/week, once-a-week injection, 3-week treatment).

[5] = GLP-1 receptor knock out (GLP-1R−/−) mice on high-fat diet, one month; type: in vivo
[6] = tested on: hormone sensitive lipase (HSL); assay: Western blot of WAT HSL phosphorylation; type: in vivo, mice; conditions: one month treatment
Procedure: Adipose tissue was placed in a 1.5-ml microfuge tube and lysed in ice cold RIPA buffer (1×PBS, 1% Nonidet P40, 0.5% sodium doxycholate, 0.1% SDS with 50 mM NaF, […], 0.1 mM Na Vanadate, 20 μg/ml Aprotinin, 10 μg/ml Leupeptin) using a tissue lyser (Retsch, Inc Newtown, Pa. Cat. #85210) at 30 hz for 3 min. Samples were spun at 12,000 rpm for 15 min (4° C.) at which time the internatant was removed to a new tube and sonicated for 15 sec on ice. Samples were spun at 14,000 rpm for 10 min (4° C.) and the internatant was collected to a new tube. Samples were again spun at 19,000 rpm for 10 min (4° C.) and the internatant collected to a new tube. An aliquot of sample was then taken for protein assay. Samples were then boiled in 4×SDS/DTT buffer for 2 min. 50 μg of protein from cell lysate were subjected to SDS/PAGE on 9% (w/v) acrylamide resolving gels and transferred to Hybond ECL nictrocellulose membranes. […] After washing, primary antibody detection was performed using either HRP-conjugated anti-(rabbit IgG) or anti-(mouse IgG) (HRP-conjugated anti-rabbit and anti-mouse secondary antibodies were purchased from Bio-Rad (170-6515 & 170-6516)) and detected using enhanced chemiluminescence (Amersham Biosciences) and exposed to CL-Xposure film (Pierce).

[7] = tested on: Uncoupling protein I (UCP1); assay: UCP1 levels in brown adipose tissue; parameters: species or system mice; conditions: mouse, in vivo
[8] = Glucose challenge in DIO mice after i.p. peptide (Examples 24, 25); type: in vivo; conditions: 2, 20, 70 nmol/kg i.p.
Procedure: Diet-induced obesity (DIO) mice were injected intraperitoneally at the −15 min time point with 0.2, 2, 20, or 70 nmol/kg of one of the following:
A saline solution comprising 25% (v/v) glucose was injected at a dose of 1.5 g/kg of body weight at the 0 min time point. Blood glucose levels were measured at the −15, 0, 15, 30, 60, and 120 min time points.
DIO mice were injected intraperitoneally at the −24 hr time point with 70 nmol/kg of one of the following:
A saline solution comprising 25% (v/v) glucose was injected at a dose of 1.5 g/kg of body weight at the 0 min time point. Blood glucose levels were measured at the 0, 15, 30, 60, and 120 min time points.

[9] = DIO mice, i.p. once a week for 2 weeks (Example 30); type: in vivo; conditions: for blood glucose levels in response to a glucose injection: glucose 24 hours after peptide
Procedure: Changes in body weight of and food intake by the mice were measured 0, 1, 3, 5, 7, 8, 10, 12, and 14 days after injection. Blood glucose levels of the mice were monitored throughout the 14 days. Glucose tolerance tests were performed by injecting a 25% glucose in saline solution 1 hour or 24 hours after administration of the acylated or pegylated peptide and measuring blood glucose levels at −60, 0, 15, 30, 60, or 120 min after the glucose injection.

[10] = DIO mice, s.c. daily for seven days (Example 32); type: in vivo
Text: The acylated glucagon analogs were as follows:

[11] = 70 nmol/kg s.c. Days 0 and 7, Day 9

Compound: CCCCCCCCCCCCCC(=O)NCCCC[C@H](NC(=O)[C@H](CC(=O)O)NC(=O)[C@H](CO)NC(=O)[C@@H](NC(=O)[C@H](Cc1ccccc1)NC(=O)[C@@H](NC(=O)CNC(=O)[C@H](CCC(N)=O)NC(=O)[C@H](CO)NC(=O)C(C)(C)c1c[nH]cn1)[C@@H](C)O)[C@@H](C)O)C(=O)N[C@@H](CO)C(=O)N[C@@H](CCCCN)C(=O)N[C@@H](Cc1ccc(O)cc1)C(=O)N[C@@H](CC(C)C)C(=O)N[C@@H](CC(=O)O)C(=O)N[C@H]1CCC(=O)NCCCC[C@@H](C(=O)N[C@@H](CC(=O)O)C(=O)N[C@@H](Cc2ccccc2)C(=O)N[C@H](C(=O)N[C@@H](CCC(N)=O)C(=O)N[C@@H](Cc2c[nH]c3ccccc23)C(=O)N[C@@H](CC(C)C)C(=O)N[C@@H](CCSC)C(=O)N[C@@H](CC(N)=O)C(=O)N[C@H](C(N)=O)[C@@H](C)O)C(C)C)NC(=O)[C@H](C)NC(=O)[C@H](CCCNC(=N)N)NC(=O)[C@H](CCCNC(=N)N)NC1=O [DMIA1, K10(C14), [E16/K20]-Gluc Amide]
% Activity of GLP-1 (GLP-1 receptor): 30%
% Activity of Glucagon (glucagon receptor; Table 21): 203.7%

Percent Potency Relative to Native Ligand, GLP-1Rec (GLP-1 receptor; Table 5): 41.5%
Percent Potency Relative to Native Ligand, GLP-1Rec (GLP-1 receptor; Table 9): 41.5%
EC50 (glucagon receptor; EC50, Glucagon Receptor, Table 13): 180 pM
EC50 (glucagon receptor; EC50 at Glucagon Receptor, Table 17): 203 pM
Percent Potency Relative to Native Ligand, GRec (glucagon receptor; Table 5): 130.1%
Percent Potency Relative to Native Ligand, GRec (glucagon receptor; Table 9): 130.1%
Compound: CSCC[C@H](NC(=O)[C@H](CC(C)C)NC(=O)[C@H](Cc1c[nH]c2ccccc12)NC(=O)[C@H](CCC(N)=O)NC(=O)[C@@H](NC(=O)[C@H](Cc1ccccc1)NC(=O)[C@H](CC(=O)O)NC(=O)[C@H](CCCCN)NC(=O)[C@H](C)NC(=O)[C@H](CCCNC(=N)N)NC(=O)[C@H](CCCNC(=N)N)NC(=O)[C@H](CCC(=O)O)NC(=O)[C@H](CC(=O)O)NC(=O)[C@H](CC(C)C)NC(=O)[C@H](Cc1ccc(O)cc1)NC(=O)[C@H](CCCCN)NC(=O)[C@H](CO)NC(=O)[C@H](Cc1ccc(O)cc1)NC(=O)[C@H](CC(=O)O)NC(=O)[C@H](CO)NC(=O)[C@@H](NC(=O)[C@H](Cc1ccccc1)NC(=O)[C@@H](NC(=O)CNC(=O)[C@H](CCC(N)=O)NC(=O)[C@H](CO)NC(=O)[C@@H](N)Cc1c[nH]cn1)[C@@H](C)O)[C@@H](C)O)C(C)C)C(=O)N[C@@H](CC(N)=O)C(=O)N[C@H](C(N)=O)[C@@H](C)O [E16, K20 Gluc-NH2, HSQGTFTSDYSKYLDERRAKDFVQW LMNTa]

Compound: GLP-1
Percent Helicity, 0% TFE ([1]; 10 mM phosphate buffer pH 5.9, 0% TFE): 14%
Percent Helicity, 10% TFE ([1]; 10% TFE): 29%
Percent Helicity, 20% TFE ([1]; 20% TFE): 55%

Compound: H(Aib)QGTFTSDYSKYLDEQAAKEFICWLMNT-amide [Peptide X-PEG]
ability to lower body weight [2]: comparable ability to lower body weight
leptin [3, 11]: 7308 ± 2927 pg/mL
plasma triglycerides [3, 11]: no significant effect on triglycerides
blood glucose profile (AUC), i.p. glucose challenge [3]: 13794±824.1
Plasma C-peptide levels ([3]; after one month of treatment): 624.7 pg/mL
plasma insulin ([3]; after one month of treatment): 1034 pg/mL
total cholesterol ([3]; chronic s.c. treatment over 27 days): 106.9 mg/dL
dose response of body weight and blood glucose ([3]; single s.c. 0-350 nmol/kg): linearly responsive, dose-dependent decreases in body weight and blood glucose
Energy expenditure ([3]; weekly s.c. 70 nmol/kg): 17.19±1.49 kcal/[kg*h]
change in fat mass ([3]; weekly s.c. 70 nmol/kg): −52.2%
respiratory quotient ([3]; weekly s.c. 70 nmol/kg): 0.725±0.01
Blood glucose levels, mean decrease ([3]; weekly s.c. 70 nmol/kg): −24.5%
decrease in body weight ([3]; weekly s.c. 70 nmol/kg): 20.1%
change in body weight [4]: −11.15+/−0.88%
change in fat mass [4]: −19.17+/−2.03%
body weight [5]: caused a reduction of body weight (p>0.05
food intake [5]: no effect on food intake
phosphorylation of hormone sensitive lipase (HSL) in white adipose tissue [6]: 1.135±0.315
Uncoupling protein I (UCP1) levels in brown adipose tissue [7]: 2.167±0.429

Compound: H(Aib)QGTFTSDYSKYLDEQAAKEFICWLMNT-amide [Peptide Y-PEG]
total cholesterol ([3]; 70 nmol/kg s.c. Days 0 and 7, evaluated Day 9): 63.0 mg/dL
blood glucose profile (AUC), i.p. glucose challenge [3]: 14183±1072
Blood glucose levels, mean decrease ([3]; weekly s.c. 70 nmol/kg): −32%
decrease in body weight ([3]; weekly s.c. 70 nmol/kg): 28.1%
change in body weight [4]: −20.58+/−2.26%
change in fat mass [4]: −33.76+/−4.76%
body weight [5]: significant decrease in body weight
fat mass [5]: significant decrease

Compound: Peptide A K^10—C8: Chimera 2 with AIB2, Lys10 acylated with C8 fatty acid, Cys24 40K PEG (H[Aib]QGTFTSDK(C8 fatty acid)SKYLDEQAAKEFIC(PEG 40 kDa)WLMNT-NH2)
ability to lower blood glucose, glucose challenge 15 min after peptide [8]: greatest ability to lower blood glucose
blood glucose levels in response to a glucose injection [9]: lowered in comparison to vehicle control

Compound: Peptide A K^10—C14: Peptide A of Example 20 with Lys10 acylated with a C14 fatty acid chain (H[Aib]QGTFTSDK(C14 fatty acid)SKYLDEQAAKEFIC(PEG 40 kDa)WLMNT-NH2)
total body weight ([9]; 40 or 80 nmol/kg, 14 days): reduced as compared to mice injected with the vehicle control
blood glucose levels in response to a glucose injection [9]: lowered in comparison to vehicle control

Compound: γE-γE-C16 Glucagon Amide: C16 Glucagon Amide with C16 attached to Lys10 through gamma-Glu-gamma-Glu dipeptide spacer
fat mass on Day 7 ([10]; 100 nmol/kg): lowest fat mass
ability to cause weight loss ([10]; 30 or 100 nmol/kg daily s.c.): greatest ability to cause weight loss
decrease of blood glucose levels ([10]; higher dose): worked as well as Liraglutide
